# What was measured:
# PPM tumor bearing mice = experiment: Flow cytometry of tumor-infiltrating immune cells in PPM tumors; settings: mouse, in vivo
# Procedure: Tumors were first mechanically disrupted by chopping, then chemically digested in collagenase buffer (8 mL DMEM, 0.1 mL 1M HEPES, 0.5 mL FBS, 0.2 mL Pen/Strep, 1 m, 10× collagenase/hyaluronidase (Stemcell Technologies), 0.2 mL of 1 mg/mL DNase I (Stemcell Technologies) at 37° C. for 45 min. Single-cell suspensions of spleen and lymph nodes were obtained by mashed through a 70 um strainer using the plunger of a 3 mL or 5 mL syringe. Single cells suspensions were treated with red blood lysis buffer (4 mL NH4Cl+1 mL PBS with 2% calf serum) and washed with FACS buffer. Single cells suspensions were incubated with LIVE/DEAD Fixable Aqua Dead Cell Stain (Life Technologies, Cat # L34965) for 30 min and then blocked with anti-CD16/32 (BioLegend, clone 93) for 20 min on ice. Samples were then incubated with appropriate antibodies for 30 min. on ice. The Foxp3 staining buffer set (eBioscience, Cat #00-5523-00) was applied for intracellular markers staining. For the intracellular cytokine analysis, cells were stimulated with Leukocyte Activation Cocktail (BD Biosciences, Cat #550583) at 37° C. for 5 hours prior to FACS staining. […] Flow cytometry was performed on an LSR II (BD Biosciences) or LSRFortessa™ HTS (BD Biosciences) at the DFCI flow cytometry core facility, and all the data were analyzed using FlowJo software.
# Brca1-null ID8 tumors = experiment: Subcutaneous Brca1-null ID8 tumors in WT or STING-KO mice; format: in vivo, mouse
# Procedure: Single cells were obtained by digestion of primary ovarian tumors in collagenase buffer and then cultured in MOT media (DMEM/F12, 0.6% FBS, 10 ng/ml EGF, hydrocortisone 1 μg/ml, cholera toxin 1 ng/ml, 100 μg/ml penicillin-streptomycin, 5 μM Y27632). Tumor cells were transduced with lentiviral vector encoding luciferase (pLenti-blasticidin-luciferase) and then subjected to 3 days antibiotic selection with blasticidin 2 μg/ml. These luciferased tumors were transplanted orthotopically into syngeneic FVB/NJ mice to generated tumors for drug evaluation. Olaparib (AZD2281) was used by diluting 100 mg/ml stocks in DMSO with 10% 2-hydroxyl-propyl-β-cyclodextrine/PBS and administered daily by i.p. injection at dose of 50 mg/kg body weight. Mouse anti-PD-1 monoclonal antibody kindly provided by Gordon Freeman at DFCI was diluted in PBS (250 μg/100 μl/mouse) and injected by i.p. every 3 days. BX795 (Cat # HY-10514/CS-0259, MedChem Express) was prepared in DMSO (100 mg/ml) as stock solution and diluted in (25% PEG400+0.5% Tween)/PBS and administered daily by i.p. injection at dose of 30 mg/kg body weight. Anti-IFNAR1 antibody (Cat # BE0241; clone, MAR1-5A3; InVivoMab) was diluted in PBS (200 μg/100 μl/mouse) and injected by i.p. every 3 days. Tumor-bearing mice were equivalently divided into control and treatment groups according to the luminescent intensity. The endpoints were determined by tumor burden and ascites. For the CD8 depletion experiment, mice were injected intraperitoneally with anti-CD8 antibody (400 μg; clone YTS 169.4, BioXcell) 24 and 48 h before beginning olaparib treatment (50 mg/kg/day) and every 4 days thereafter.
# Brca-1 deficient ID8 cells were generated using a CRISPR double nickase plasmid. […] Due to a lack of a reliable mouse BRCA1 antibody for Western blot, cells were analyzed by DNA sequencing to confirm the disruption of functional Brca1 allele. […]
compound,measurement,setting,value
"O=C(c1cc(Cc2n[nH]c(=O)c3ccccc23)ccc1F)N1CCN(C(=O)C2CC2)CC1 [olaparib, Olaparib]",intratumoral immune responses in PPM tumor bearing mice,PPM tumor bearing mice,not found
same,tumor growth (tumor weights),Brca1-null ID8 tumors; STING-KO hosts,little effect
same,abundance of intratumoral p-TBK1+ DCs,Brca1-null ID8 tumors; WT host,increased abundance
same,tumor growth (tumor weights),Brca1-null ID8 tumors; WT mice,significantly inhibited the tumor growth

# Source: patent publication US20200268864A1, “CANCER VACCINE COMPOSITIONS AND METHODS FOR USING SAME TO TREAT CANCER” (Dana-Farber Cancer Institute, Inc., priority 2017, published 2020)
